Source: DBAASP
In brackets after ≈: the same amount, converted by molar mass.

How the values were obtained:
Test in all cases: ≥ marks a high value that may be exact or a test limit, other limits are often not marked, values filed in µg/mL are converted to µM
Bacillus megaterium Bm11 = tested on: Bacillus megaterium Bm11
Escherichia coli ML-35 = tested on: Escherichia coli ML-35
Escherichia coli = tested on: Escherichia coli
Proteus mirabilis = tested on: Proteus mirabilis
[1] = tested on: Salmonella enterica subsp. enterica serovar Typhimurium ATCC 14028
[2] = tested on: Staphylococcus aureus ATCC 25923
Staphylococcus aureus = tested on: Staphylococcus aureus
[3] = tested on: Bacillus subtilis KCTC 1998
[4] = tested on: Candida albicans KCTC 7270
[5] = tested on: Escherichia coli ATCC 25922
[6] = tested on: Escherichia coli CCARM 1229
[7] = tested on: Escherichia coli CCARM 1238
[8] = tested on: Listeria monocytogenes KCTC 3710
[9] = tested on: Pseudomonas aeruginosa 4007
[10] = tested on: Pseudomonas aeruginosa 4891
[11] = tested on: Pseudomonas aeruginosa ATCC 27853
[12] = tested on: Salmonella typhimurium KCTC 1926
[13] = tested on: Staphylococcus aureus CCARM 3090
[14] = tested on: Staphylococcus aureus CCARM 3518
[15] = tested on: Trichosporon beigelii KCTC 7707
[16] = tested on: Staphylococcus aureus ATCC 33592

Row | MIC [2] [µM] | MIC [3] [µM] | MIC [4] [µM] | MIC [5] [µM] | MIC [6] [µM] | MIC [7] [µM] | MIC [8] [µM] | MIC [9] [µM] | MIC [10] [µM] | MIC [11] [µM] | MIC [12] [µM] | MIC [13] [µM] | MIC [14] [µM] | MIC [15] [µM] | Compound | other results
1 | 8 (≈ 15.9 µg/mL) |  |  |  |  |  |  |  |  |  |  |  |  |  | CC[C@H](C)[C@H](NC(=O)CN)C(=O)N[C@@H](CC(C)C)C(=O)N[C@@H](CO)C(=O)N[C@@H](CCCCN)C(=O)N[C@@H](CC(C)C)C(=O)NCC(=O)N[C@@H](CCCCN)C(=O)N[C@@H](C)C(=O)N[C@@H](CC(C)C)C(=O)N[C@@H](CCCCN)C(=O)N[C@@H](CCCCN)C(=O)N[C@@H](C)C(=O)N[C@@H](C)C(=O)N[C@@H](CCCCN)C(=O)N[C@@H](Cc1cnc[nH]1)C(=O)N[C@@H](C)C(=O)N[C@@H](C)C(=O)N[C@@H](CCCCN)C(=O)N[C@@H](C)C=O [GILSKLGKALKKAAKHAAKA] | MIC (Bacillus megaterium Bm11): 4 µM (≈ 7.95 µg/mL); MIC (Escherichia coli ML-35): 8 µM (≈ 15.9 µg/mL); MIC (Escherichia coli): 4 µM (≈ 7.95 µg/mL); MIC (Proteus mirabilis): ≥ 32 µM; MIC [1]: 8 µM (≈ 15.9 µg/mL); MIC (Staphylococcus aureus): 2 µM (≈ 3.98 µg/mL)
2 | 32 (≈ 84 µg/mL) | ≥ 32 | ≥ 64 | 16 (≈ 42 µg/mL) | ≥ 32 | ≥ 32 | ≥ 32 | ≥ 64 | ≥ 64 | 16 (≈ 42 µg/mL) | 16 (≈ 42 µg/mL) | ≥ 64 | ≥ 64 | ≥ 64 | CC[C@H](C)[C@H](NC(=O)CNC(=O)[C@H](CCC(N)=O)NC(=O)[C@H](CO)NC(=O)[C@@H](NC(=O)[C@H](CCCCN)NC(=O)[C@H](CCCCN)NC(=O)[C@H](CC(C)C)NC(=O)[C@H](C)NC(=O)[C@H](CC(N)=O)NC(=O)[C@H](CC(C)C)NC(=O)CN)C(C)C)C(=O)N[C@@H](Cc1cnc[nH]1)C(=O)N[C@@H](CCC(=O)O)C(=O)N[C@@H](C)C(=O)N[C@H](C(=O)N[C@@H](CCCCN)C(=O)N[C@@H](CC(C)C)C(=O)N[C@H](C(=O)N[C@@H](CC(N)=O)C(=O)N[C@@H](CC(N)=O)C(=O)N[C@@H](Cc1cnc[nH]1)C(=O)N[C@H](C(=O)N[C@@H](CCC(N)=O)C(N)=O)C(C)C)[C@@H](C)CC)[C@@H](C)CC [GLNALKKVSQGIHEAIKLINNHVQ] | 
3 |  |  |  |  |  |  |  |  |  |  |  |  |  |  | CC[C@H](C)[C@H](NC(=O)[C@H](Cc1c[nH]c2ccccc12)NC(C)=O)C(=O)N[C@@H](CCCCN)C(=O)N[C@@H](CCCN=C(N)N)C(=O)N[C@@H](CC(C)C)C(=O)N[C@@H](CC(N)=O)C(=O)N[C@@H](CO)C(=O)N[C@@H](Cc1c[nH]c2ccccc12)C(=O)N[C@@H](CC(C)C)C(=O)N[C@@H](CCCN=C(N)N)C(=O)N[C@@H](CCCCN)C(N)=O [WIKRLNSWLRK] | MIC [16]: ≥ 32 µM
4 | 32 (≈ 90 µg/mL) | ≥ 32 | ≥ 64 | 16 (≈ 45 µg/mL) | 16 (≈ 45 µg/mL) | 16 (≈ 45 µg/mL) | ≥ 32 | 16 (≈ 45 µg/mL) | 16 (≈ 45 µg/mL) | 16 (≈ 45 µg/mL) | 16 (≈ 45 µg/mL) | ≥ 32 | ≥ 32 | ≥ 64 | CC[C@H](C)[C@H](NC(=O)CNC(=O)[C@H](CCC(N)=O)NC(=O)[C@H](Cc1ccccc1)NC(=O)[C@@H](NC(=O)[C@H](CCCCN)NC(=O)[C@H](CCCCN)NC(=O)[C@H](CC(C)C)NC(=O)[C@H](C)NC(=O)[C@H](CC(N)=O)NC(=O)[C@H](CC(C)C)NC(=O)[C@@H](N)Cc1c[nH]c2ccccc12)C(C)C)C(=O)N[C@@H](Cc1cnc[nH]1)C(=O)N[C@@H](CCC(=O)O)C(=O)N[C@@H](C)C(=O)N[C@H](C(=O)N[C@@H](CCCCN)C(=O)N[C@@H](CC(C)C)C(=O)N[C@H](C(=O)N[C@@H](CC(N)=O)C(=O)N[C@@H](CC(N)=O)C(=O)N[C@@H](Cc1cnc[nH]1)C(=O)N[C@H](C(=O)N[C@@H](CCC(N)=O)C(N)=O)C(C)C)[C@@H](C)CC)[C@@H](C)CC [WLNALKKVFQGIHEAIKLINNHVQ] | 
